{"source": "patent US12338266B2", "about": "(GENETIC S.P.A., priority 2019, dated 2025)", "key": {"[1]": {"tested_on": "mice with OVA-induced allergic asthma", "assay": "Plasma IgE levels by ELISA in OVA-sensitized mice (Protocol-1)", "format": "in vivo, Balb/c mice", "description": "Balb/c mice (8-9 weeks old, Charles River, Calco, Italy) were housed in the animal care facility at the Department of Pharmacy of the University of Naples. Italy in a controlled environment (temperature 21±2° C. and humidity 60±10%) and provided with standard rodent chow and water. All animals were allowed to acclimate for four days prior to experiments and were subjected to 12 h light-12 h dark schedule. Each mouse was assigned an identity number and randomtzed to different groups so that all experiments were carried out in a blinded manner. The experimental procedures were approved by the Italian Ministry according to International and National law and policies (EU Directive 2010/63/EU and Italian DL 26/2014 for animal experiments, ARRIVE guidelines and the Basel declaration including the 3R concept). Animal studies are reported in compliance with the ARRIVE guidelines. Balb/c mice is the most widely mouse strain used to study asthma-like features in vivo and to investigate the undedying molecular and cellular mechanisms of allergen sensitization. Mice were treated subcutaneously (s.c.) with 0.4 mL (100 μg) of ovalbumin (OVA) complexed with alum (13 mg mL^−1) (OVA group) at day 0 and 7. Chicken egg-white ovalbumin (OVA: grade V. cat. A5503, Sigma Chemical Co., St. Louis, MO) was dissolved in sterile phosphate buffered saline (PBS) solution (250 μg/1 ml) and Al(OH)3 was added (at 13 mg/ml). This mix was used to induce the allergic sensitization of the animals by subcutaneous injection. OVA was dissolved at 3% in sterile PBS solution and this solution was nebulized (as the immunological challenges). At day 21 mice were exposed to OVA challenge for three days and then sacrificed. This experimental procedure induces in the mice an increase in plasma IgE levels and this effect is by itself sufficient to induce a significant increase in bronchial hyper-responsiveness and pulmonary inflammation, typical hallmarks of asthma. A group of animals was treated s.c. with saline (vehicle group). […] Animals were killed at selected time points by overdose of enflurane and bronchi and blood collected.\nBlood was collected by intracardiac puncture using citrate as anticoagulant. Plasma was obtained by centrifugation at 800×g at 4′C for 10 minutes and immediately frozen at −80° C. Total IgE levels were measured by means of ELISA using matched antibody pairs (BD Biosciences Pharmingen San Jose, Calif.)."}, "[2]": {"tested_on": "mice with OVA-induced allergic asthma", "assay": "Lung hyperreactivity / Penh by whole body plethysmography (Protocol-2)", "format": "in vivo, Balb/c mice", "description": "Male Balb/c SPF mice (26*2 g, 6 week-old) were purchased from the animal house facilities at the Faculty of Medicine (University of Sāo Paulo, Brazil). They were group-housed in a temperature-controlled room at 22° C. with a 12/12-hour light/dark cycle and allowed free access to food and water. The study is in agreement with the Ethical Principles for Animal Research established by the Brazilian College for Animal Experimentation (COBEA). According to the internal laboratory rules, euthanasia will be performed if severe distress related to the test agents developed during the experiment. Mice were sensitized with two subcutaneous injections of 0.2 ml of OVA/Al(OH)3, with an interval of 7 days (Sham animals received the Al(OH)3 suspension in PBS with no OVA). Chicken egg-white ovalbumin (OVA; grade V, cat. A5503, Sigma Chemical Co., St. Louis, Mo.) was dissolved in sterile phosphate buffered saline (PBS) solution (50 μg/ml) and Al(OH)3 was added (at 8 mg/ml). This mix was used to induce the allergic sensitization of the animals by subcutaneous injection. OVA was dissolved at 1% in sterile PBS solution and this solution was nebulized (as the immunological challenges). Seven days after the second sensitization (i.e., 3rd week), the animals were nebulized twice a week with the 1% OVA solution (Sham and untreated OVA groups were nebulized with PBS) during 20 minutes for the next 4 weeks. Thirty minutes before the challenges (OVA nebulization) and daily during the next 4 weeks, mice were intra-nasally treated (10 μl/animal as 5 μl/nostril) with the respective compounds/vehicle. […] Animals were killed at selected time points by overdose of enflurane and BAL and blood collected.\nAirway responsiveness in conscious, spontaneously breathing animals was measured at the end of the 6th week (i.e., after 4 weeks OVA challenges+treatments), 24 h after the last OVA/PBS challenge via whole body plethysmography (Buxco Europe Ltd, Winchester, UK). Experiments were carried out in a quiet room by an investigator who was unaware of the nature of treatments. Aerosolized saline (50 μl/mouse during 60 s) and then the muscarinic agonist metacholine (MCh) at increasing concentrations (3.12, 6.25, 12.5 and 25.0 mg/ml in PBS) was nebulized through an inlet of the main chamber for 3 min each to induce bronchoconstriction and readings were taken and averaged for 6 min following each nebulization. After 20 min. the baseline values usually returned at the end of this period. Enhanced pause (Penh) was measured as an indicator of bronchoconstriction and consequent increase of airway resistance as: Penh=[(expiration time/relaxation time)−1][…]."}}, "note": "Entries after “also recorded” stand apart in the source; their conditions may differ."}
{"smiles": "CC(C)(O)c1ccccc1CCC(SCC1(CC(=O)OCC(=O)[C@@]23O[C@H](C4CCCCC4)O[C@@H]2C[C@H]2[C@@H]4CCC5=CC(=O)C=C[C@]5(C)[C@H]4[C@@H](O)C[C@@]23C)CC1)c1cccc(/C=C/c2ccc3ccc(Cl)cc3n2)c1", "note": "(stereo partly shown) [montelukast desisobutyryl-ciclesonide ester]", "values": [{"measurement": "allergen induced plasma IgE increase", "setting": "[1]; 0.5, 1 and 2 mg/Kg i.p.", "result": "reduces allergen induced IgE increase in a dose-dependent manner"}, {"measurement": "inhibition of allergen induced IgE increase, compared to ciclesonide", "setting": "[1]; ester 2 mg/kg i.p. vs ciclesonide 1 mg/kg, FIG. 6C", "result": "increased inhibitory effect"}, {"measurement": "respiratory function at the lowest dose tested", "setting": "[2]; 10 nmol/animal/day, comparable with ciclesonide alone at 100 nmol/animal/day", "result": "significant effects"}, {"measurement": "airway responsiveness, Penh (basal, methacholine Emax and AUC)", "setting": "[2]; 10, 30 and 100 nmol/day/animal intranasal, daily for 4 weeks, FIG. 8A-D", "result": "Significant reduction of this response; also recorded: significantly reduced"}]}
